Source: ChEMBL document CHEMBL1129818, “Discovery of anti-influenza A virus activity of a corynanthe-type indole alkaloid, hirsutine, in vitro and the structure-activity relationship of natural and synthetic analogs” (Bioorg Med Chem Lett, 1997)
Converted amounts (≈) assume the structure as drawn. “And” between values parts separate entries of the source, which are not always exact repeats. Identical values can stand only once.

How the values were obtained:
[1] = Selectivity index for effective concentration to that of Cytotoxicity in MDCK cells by MTT assay; format: functional
MDCK [2] = test: Cytotoxicity was measured by Anti-influenza A virus Ishikawa/7/82 in MDCK cells by MTT assay; format: functional; settings: Canis lupus familiaris
MDCK [3] = test: Effective concentration required to determine Anti-influenza A virus Ishikawa/7/82 in MDCK cells by MTT assay; format: functional, cell-based; settings: Canis lupus familiaris
MDCK [4] = test: The compound was evaluated for inhibitory effect on the replication of influenza A subtype H1N1 yamagata/120/86 strain in MDCK cells; format: functional, cell-based; settings: Canis lupus familiaris
MDCK [5] = test: The compound was evaluated for inhibitory effect on the replication of influenza A subtype H1N1 PR8/34 strain in MDCK cells; format: functional, cell-based; settings: Canis lupus familiaris
MDCK [6] = test: The compound was evaluated for cytotoxicity by MTT assay in MDCK cells; format: functional; settings: Canis lupus familiaris
MDCK [7] = test: The compound was evaluated for inhibitory effect on the replication of influenza B Singapore/222/79 strain in MDCK cells; format: functional, cell-based; settings: Canis lupus familiaris
MDCK [8] = test: The compound was evaluated for inhibitory effect on the replication of influenza A subtype H2N2 murakami/4/64 strain in MDCK cells; format: functional, cell-based; settings: Canis lupus familiaris
MDCK [9] = test: The compound was evaluated for inhibitory effect on the replication of influenza A subtype H3N2 Philippine/2/82 in MDCK cells; format: functional, cell-based; settings: Canis lupus familiaris
MDCK [10] = test: The compound was evaluated for inhibitory effect on the replication of influenza A subtype H1N1 Bangkok/10/83 strain in MDCK cells; format: functional, cell-based; settings: Canis lupus familiaris
MDCK [11] = test: The compound was evaluated for inhibitory effect on the replication of influenza A subtype H3N2 ishikawa/7/82 in MDCK cells; format: functional, cell-based; settings: Canis lupus familiaris
MDCK [12] = test: The compound was evaluated for inhibitory effect on the replication of influenza B norway/1/80 strain in MDCK cells; format: functional, cell-based; settings: Canis lupus familiaris
MDCK [13] = test: The compound was evaluated for inhibitory effect on the replication of influenza A subtype H2N2 Adachi/2/57 in MDCK cells; format: functional, cell-based; settings: Canis lupus familiaris
[14] = Selectivity index ratio of CC50 / EC50 was determined; format: functional

Compound | Selectivity index [1] | CC50 (MDCK [2]) | EC50 (MDCK [3]) | also measured
C=CC1CN2CCc3c([nH]c4ccccc34)C2C[C@@H]1/C(=C\OC)C(=O)OC (some centres undefined) | 14 | 25.2 µg/mL (≈ 68.8 µM) | 1.8 µg/mL (≈ 4.91 µM) | 
CC[C@H]1CN2CCc3c([nH]c4ccccc34)[C@@H]2C[C@@H]1/C(=C/OC)C(=O)OC [DIHYDROCORYNANTHEINE] |  | 86.3 µg/mL (≈ 234 µM) | > 86.3 µg/mL | 
CC[C@H]1C[N+]2([O-])CCc3c([nH]c4ccccc34)[C@H]2C[C@@H]1/C(=C\OC)C(=O)OC (some centres undefined) | >1.2 | > 100 µg/mL | 86.4 µg/mL (≈ 225 µM) | 
CC[C@H]1CN2CCc3c(n(C)c4ccccc34)[C@H]2C[C@@H]1/C(=C\OC)C(=O)OC | 15.8 | 25.3 µg/mL (≈ 66.1 µM) | 1.7 µg/mL (≈ 4.44 µM) | 
CC[C@H]1CN2CCc3c([nH]c4cccc(OC)c34)[C@H]2C[C@@H]1/C(=C\OC)C(=O)OC | 76.8 | 40.7 µg/mL (≈ 102 µM) | 0.5 µg/mL (≈ 1.25 µM) | 
CCO/C=C(\C(=O)OC)[C@H]1C[C@@H]2c3[nH]c4ccccc4c3CCN2C[C@@H]1CC | 36.4 | 32.4 µg/mL (≈ 84.7 µM) | 0.9 µg/mL (≈ 2.35 µM) | 
C=C(C(=O)OC)[C@H]1C[C@@H]2c3[nH]c4ccccc4c3CCN2C[C@@H]1CC |  | 62.1 µg/mL (≈ 183 µM) | > 62.1 µg/mL | 
CC[C@H]1CN2CCc3c([nH]c4ccccc34)[C@H]2C[C@@H]1/C(C=O)=C(/O)OC |  | 8.4 µg/mL (≈ 23.7 µM) | > 8.4 µg/mL | 
CC[C@H]1CN2Cc3c(nc4ccccc4c3O)[C@H]2C[C@@H]1/C(=C\OC)C(=O)OC |  | 38.1 µg/mL (≈ 99.6 µM) | > 38.1 µg/mL | 
NC(=O)c1ncn([C@@H]2O[C@H](CO)[C@@H](O)[C@H]2O)n1 [RIBAVIRIN] |  |  |  | EC50 (MDCK [4]): 11.7 µg/mL (≈ 47.9 µM); EC50 (MDCK [5]): 8.3 µg/mL (≈ 34 µM); CC50 (MDCK [6]): > 100 µg/mL; EC50 (MDCK [7]): 8.5 µg/mL (≈ 34.8 µM); EC50 (MDCK [8]): 2.1 µg/mL (≈ 8.6 µM); EC50 (MDCK [9]): 6.1 µg/mL (≈ 25 µM); EC50 (MDCK [10]): 34.2 µg/mL (≈ 140 µM); EC50 (MDCK [11]): 7.9 µg/mL (≈ 32.3 µM); EC50 (MDCK [12]): 5.5 µg/mL (≈ 22.5 µM); EC50 (MDCK [13]): 2.2 µg/mL (≈ 9.01 µM)
CC[C@H]1C[N+]2(C)CCc3c([nH]c4ccccc34)[C@H]2C[C@@H]1/C(=C\OC)C(=O)OC (some centres undefined) |  | > 100 µg/mL | > 100 µg/mL | 
CC[C@H]1CN2CC[C@]3(O)C(=Nc4ccccc43)[C@H]2C[C@@H]1/C(=C\OC)C(=O)OC |  | > 100 µg/mL | > 100 µg/mL | 
CC[C@H]1CN2CCc3c([nH]c4ccccc34)[C@H]2C[C@@H]1/C(=C\OC)C(=O)OC [HIRSUTINE] |  |  |  | Ratio [14]: 58.8 and 41.2; EC50 (MDCK [4]): > 23.5 µg/mL; EC50 (MDCK [5]): > 23.5 µg/mL; CC50 (MDCK [6]): 23.5 µg/mL (≈ 63.8 µM); EC50 (MDCK [7]): > 23.5 µg/mL; EC50 (MDCK [8]): > 23.5 µg/mL; EC50 (MDCK [9]): 0.57 µg/mL (≈ 1.55 µM); EC50 (MDCK [10]): > 23.5 µg/mL; EC50 (MDCK [11]): 0.4 µg/mL (≈ 1.09 µM); EC50 (MDCK [12]): > 23.5 µg/mL; EC50 (MDCK [13]): > 23.5 µg/mL
CC[C@H]1CN2CCc3c([nH]c4ccccc34)[C@H]2C[C@@H]1C(/C=N\C)=C(/O)OC |  | 3.9 µg/mL (≈ 10.6 µM) | > 3.9 µg/mL | 
CC[C@@H]1CN2CCc3c([nH]c4ccccc34)[C@@H]2C[C@@H]1/C(=C\OC)C(=O)OC [CORYNANRHEIDINE] |  | 45.1 µg/mL (≈ 122 µM) | > 45.1 µg/mL | 
CC[C@H]1CN2CCc3c([nH]c4ccccc34)[C@H]2C[C@@H]1/C(=C/OC)C(=O)O |  | 39.2 µg/mL (≈ 111 µM) | > 39.2 µg/mL | 
